Data: US8357407B2, “Agent for cutaneous photoprotection against UVA/UVB rays” (priority 2009, dated 2013)
“And” between values parts separate entries of the source, which are not always exact repeats. Equal entries are not always repeated. Marks after values point to notes of the source that are not given here.

What was measured:
[1] = tested on: rat skin under UVB radiation; test: Second test: UVB-induced dermal erythema and sunburnt cells in rat skin; format: in vivo; parameters: key to presence or absence of erythema or its manifestations in the treated area, per animal: presence (+); absence (−)
Experimental: They were acclimatized to the location where the tests were carried out during 7 days after being received. […] The animals were fed ad libitum with a standard rodent diet and running water during this period and during the experimental period. […] The products to be tested were applied directly on the skin as a gel. The test was conducted following the method described by Winder et al. “A Study of Pharmacological Influences of Ultraviolet Erythema in Guinea Pigs”. Arch. Int Pharmacodyn, 116: 261-292. 1958, and other authors such as Wendy, J et al. “The Local Antinociceptive and Topical Anti-inflammatory Effects of Propyl Gallate in Rodents”. Br. J. Pharmacol, 58: 573-581. 1976, and […]. et al. “Protective Effects of Silymarin Against Photocarcinogenesis in a Mouse Skin Model”. J. Natl. Cancer Inst. 89: 556-65. 1997, with slight modifications. The animals were shaved clean six days before the test to eliminate all traces of hair, leaving the skin on their backs completely bare. A morning (10:00 h) and evening (20:00 h) dosage regime for the substance to be tested or for the standard commenced on the first day of the test on a randomized and blind basis lasting 3 days. On the third day, after applying the corresponding morning treatments, the animals were placed and secured in the equipment's exposure platform. The animals were then placed 8 cm from the 4*40 W ultraviolet light source emitting at a fundamental frequency of 313 nm and in a range from approximately 290 to 350 nm, with an anti-UVC filter. The exposure was maintained until all animals received a total dosage of approximately 2.5 kJ/m2, with the irradiation dosis determined by means of an ultraviolet light detector. The backs of the animals were photographed 24 hours after the exposure, and the animals were sacrificed by cervical dislocation. The back skin was removed and a 2×2 cm fragment located under the area were the substance to be tested was applied was placed and maintained for 6 hours in a jar with 10% tamponated formalin, before initiating the paraffin inclusion process and preparation for the histological study. The preparations were observed under an optical microscope and the epidermal-dermal space was photographed at ×100 magnification in 5 different locations for each preparation. A count of sunburnt cells was made for each photograph, considering cells as sunburnt if they had hypereosinophilic cytoplasm with small dark and irregular dense nuclei different than those of its neighbors. The evaluation of the erythema was made on a positive/negative basis, obtaining the percentage of protected animals. The number of hypereosinophilic cells with pyknotic nuclei (sunburnt) was counted in the photographic fields for each of the five different sectors in each histological preparation. The sum of the five counts was considered as the value for each animal. […] The statistical significance of the differences was evaluated by means of non-parametric tests, such as the Fisher Test or the χ^2 (Chi Squared).

[2] = UV/VIS comparative spectral absorption; format: physicochemical
From the text: The AEDA was subjected to a UV/VIS spectral analysis at 200-400 nm to determine the peak absorbency of the compounds with UV absorbing characteristics present in the AEDA. A SHIMADZU UV-160 photospectrometer was used for this purpose, with the samples diluted in ethanol until a visible reading in the spectrum was obtained.
The AEDA absorption spectra show maximum absorption at wavelengths under 240 nm. In the band from approximately 250 nm to 350 nm. AEDA offers stable absorbency between 0.75 and 1.5 UA that blocks a significant amount of UVC, UVB and the more energetic portion of UVA light. Part of its effects may therefore be due to a screen effect that prevents the luminous radiation from reaching the skin.
The first two are located before the UVC band, and the third appears above 285 nm and extends to almost 340 nm. This behavior is typical of the polyphenols present in numerous vegetals, which provide and an effective screen effect that protects plants from solar light. When comparing the concentrations required to reach similar absorbencies, it can be observed that ferulic acid develops its effective blocking ability at 50 μg/ml, whereas with AEDA, 500 μg/ml produce a block equivalent to 50% of that obtained with 50 μg/ml of ferulic acid. To produce similar blocking intensities, the necessary concentrations of AEDA must be 10 to 50 times higher than with ferulic acid.

[3] = EDA 300 mg/ml or ferulic acid 0.5% topical, p < 0.01 versus Vehicle

With `COc1cc(/C=C/C(=O)O)ccc1O` [Ferulic Acid, ferulic acid] the “number of sunburnt cells, Average ± S.E.M.” value ([1]; 10 animals per group, EDA 300 mg/ml or ferulic acid 0.5% topical, positive control vehicle 32.7 ± 1.52) was 5.2 ± 1.08, the “number of sunburnt cells (in words)” value ([1]; AEDA 300 mg/ml or ferulic acid 0.5% topical, histology) was “small” and the “erythema, % inhibition versus Positive Control Vehicle (suppression, subjective criteria)” value ([1]; EDA 300 mg/ml or ferulic acid 0.5% topical) was 90%. For the same molecule, the “erythema, % Protected animals” value [1, 3] was 70%*, the “sunburnt cells, % inhibition versus Positive Control Vehicle” value [1, 3] was 84.1%* and the “erythema, % Protected animals” value ([1]; EDA 300 mg/ml or ferulic acid 0.5% topical, p < 0.01 versus Vehicle, listed as ferulic acid) was 70%. For the same molecule, the “presence or absence of erythema or its manifestations in the treated area, per animal” value ([1]; individual animals 1-10, EDA 300 mg/ml or ferulic acid 0.5% topical, 24 hours after UVB exposure) was “− (6×) and + (3×)”, the “number of sunburnt cells per animal (sum of five counts)” value ([1]; individual animals 1-10, EDA gel 300 mg/ml or ferulic acid gel 0.5%, 100 μl topical twice daily for 3 days, UVB approx. 2.5 kJ/m2, 24 hours after exposure) was 8 and 4 (2×) and 3 (2×) and 2 and 10 and 0 and 11 and 7 and the “concentration at which effective UV blocking ability develops” value [2] was 50 µg/mL.
